Measured values: the supplement of paper PMC11451515

System: SEM cells
Experiment: cell viability relative to DMSO control; higher = less cytotoxic
Conditions: 48 h
Outline: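 NOMO1 or SEM cells were plated at 500 cells/well and P12-Ichikawa cells at 1000 cells/well in 1536-well plates (5 μl), after each leukemia line had been adapted for at least four passages in each medium. Pin dosing delivered library compounds in DMSO at 11 threefold concentrations, 47 μM to 0.79 nM. CellTiter-Glo One luminescence was read after 48 h at 37°C. Viability is reported as a per-plate percentage of DMSO wells, with cell-free wells as background.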

[1] = HPLM + 10% dialyzed FBS, 0.000781 µM
[2] = HPLM + 10% dialyzed FBS, 0.00234 µM
[3] = HPLM + 10% dialyzed FBS, 0.00702 µM
[4] = HPLM + 10% dialyzed FBS, 0.0211 µM
[5] = HPLM + 10% dialyzed FBS, 0.0632 µM
[6] = HPLM + 10% dialyzed FBS, 0.19 µM
[7] = HPLM + 10% dialyzed FBS, 0.569 µM
[8] = HPLM + 10% dialyzed FBS, 1.71 µM
[9] = HPLM + 10% dialyzed FBS, 5.12 µM
[10] = HPLM + 10% dialyzed FBS, 15.4 µM
[11] = HPLM + 10% dialyzed FBS, 46.1 µM
[12] = RPMI 5 mM glucose + 10% FBS, 0.000781 µM
[13] = RPMI 5 mM glucose + 10% FBS, 0.00234 µM
[14] = RPMI 5 mM glucose + 10% FBS, 0.00702 µM
[15] = RPMI 5 mM glucose + 10% FBS, 0.0211 µM
[16] = RPMI 5 mM glucose + 10% FBS, 0.0632 µM
[17] = RPMI 5 mM glucose + 10% FBS, 0.19 µM
[18] = RPMI 5 mM glucose + 10% FBS, 0.569 µM
[19] = RPMI 5 mM glucose + 10% FBS, 1.71 µM
[20] = RPMI 5 mM glucose + 10% FBS, 5.12 µM
[21] = RPMI 5 mM glucose + 10% FBS, 15.4 µM
[22] = RPMI 5 mM glucose + 10% FBS, 46.1 µM
[23] = RPMI 5 mM glucose + 10% dialyzed FBS, 0.000781 µM
[24] = RPMI 5 mM glucose + 10% dialyzed FBS, 0.00234 µM
[25] = RPMI 5 mM glucose + 10% dialyzed FBS, 0.00702 µM
[26] = RPMI 5 mM glucose + 10% dialyzed FBS, 0.0211 µM
[27] = RPMI 5 mM glucose + 10% dialyzed FBS, 0.0632 µM
[28] = RPMI 5 mM glucose + 10% dialyzed FBS, 0.19 µM
[29] = RPMI 5 mM glucose + 10% dialyzed FBS, 0.569 µM
[30] = RPMI 5 mM glucose + 10% dialyzed FBS, 1.71 µM
[31] = RPMI 5 mM glucose + 10% dialyzed FBS, 5.12 µM
[32] = RPMI 5 mM glucose + 10% dialyzed FBS, 15.4 µM
[33] = RPMI 5 mM glucose + 10% dialyzed FBS, 46.1 µM

Structure (SMILES)	cell viability [1] [%]	cell viability [2] [%]	cell viability [3] [%]	cell viability [4] [%]	cell viability [5] [%]	cell viability [6] [%]	cell viability [7] [%]	cell viability [8] [%]	cell viability [9] [%]	cell viability [10] [%]	cell viability [11] [%]	cell viability [12] [%]	cell viability [13] [%]	cell viability [14] [%]	cell viability [15] [%]	cell viability [16] [%]	cell viability [17] [%]	cell viability [18] [%]	cell viability [19] [%]	cell viability [20] [%]	cell viability [21] [%]	cell viability [22] [%]	cell viability [23] [%]	cell viability [24] [%]	cell viability [25] [%]	cell viability [26] [%]	cell viability [27] [%]	cell viability [28] [%]	cell viability [29] [%]	cell viability [30] [%]	cell viability [31] [%]	cell viability [32] [%]	cell viability [33] [%]
C/C(=C\c1csc(C)n1)[C@@H]1C[C@@H]2O[C@@H]2CCC[C@H](C)[C@H](O)[C@@H](C)C(=O)C(C)(C)[C@@H](O)CC(=O)O1	26.5	21.4	22.1	22.7	19.9	20.3	23.7	21.5	19.1	20.8	20.7	14.8	18.4	16.2	16	16.4	16.4	16.2	13.4	16.1	16.3	13.4	32.1	17.1	19.3	16.8	15.6	17.7	19.6	15.2	18.7	21.8	19.2
C[N+](C)(C)CC(=O)O.[Cl-]	56.8	83.2	80.5	73.7	79.7	85.5	88.3	26.3	93.1	93.4	89.1	76.8	80.8	73	77.4	81.8	89.2	96	16.6	86.8	90.2	93.4	81.5	95	90.9	87.8	81.7	89	100	21	91.8	88.8	74.2
O=C(O)CSCC(=O)NC1CCSC1=O (centres undefined)	77.6	98.4	91.5	80.6	99.3	91.9	112	102	100	89.5	92.6	73.3	87.6	96.4	92.9	107	113	111	104	101	97	98.8	83.4	98.4	100	100	115	105	107	108	118	104	94.9
COc1ccc(C(=O)CC(=O)c2ccc(C(C)(C)C)cc2)cc1	70.8	73.2	75.9	66.4	69.1	78.2	75.8	76.1	80.8	93.5	68.3	100	94.4	101	93	99	88	98.5	95.1	110	106	89.9	91.7	96.1	101	105	100	104	117	92	111	90.8	115
CN[C@H]1[C@H](O[C@@H]2[C@H](O[C@@H]3[C@@H](O)[C@@H](O)[C@@H](NC(=N)N)[C@@H](O)[C@H]3NC(=N)N)O[C@H](C)[C@@]2(O)C=O)O[C@@H](CO)[C@@H](O)[C@H]1O	93.2	89.9	79.7	80.2	79.9	82.2	83.7	57	83.3	82.1	78.6	95.1	116	119	114	114	110	104	44.8	103	85.6	99.3	109	103	118	114	117	114	109	80.4	103	111	101
CC(C)(C)Cn1c(N)nc2ccc(-c3[nH]c(C(C)(C)C)nc3-c3ccc(F)cc3)nc21	97.1	94.9	84.7	87.8	91.5	82.2	85.2	79.1	84.5	77.6	73.5	123	111	108	157	146	78.1	54.1	88.5	91.9	15.4	59.3	102	98.5	79.3	90.9	106	87.9	90	87	85.3	13.4	98.2
COc1nccc(-c2c(-c3ccc(F)cc3)ncn2C2CCC(O)CC2)n1 (centres undefined)	124	123	132	128	122	105	125	113	106	116	36.1	102	116	97.3	103	96.6	56.7	53.4	63.9	63.8	47.9	12.2	103	126	116	114	123	127	111	112	94.9	87.9	26.8
CN1C2=CC(=O)/C(=N/NC(N)=O)C=C2CC1S(=O)(=O)[O-].[Na+] (centres undefined)	79.9	110	96.7	103	103	110	117	105	124	103	115	109	108	114	115	103	115	112	121	128	125	112	95.5	109	98.5	110	94.6	116	126	114	118	117	109
Oc1cc2c(cc1O)C1c3ccc(O)c(O)c3OCC1(O)C2 (centres undefined)	83.5	32.7	89.1	88.3	100	102	93	100	99.7	100	90.6	83.8	36.7	99.2	102	91.3	105	101	88.8	108	101	87.7	92.7	34.3	102	91.7	86.4	107	92.9	106	104	111	89.5
CCCC1=N[N](C)C2=C1\N=C(/NC2=O)C3=CC(=CC=C3OCC)[S+]([O-])(=O)N4CCN(C)CC4	44.2	88.3	87.9	94.3	74	88.4	79.8	80.8	87	46.3	2.85	46.9	108	97.7	85.9	66.6	79.7	74	78	86.9	46.2	32.2	46.1	94.2	88.5	87.4	61.7	81.2	89.9	102	88.1	61.9	4.25
CO[C@H]1/C=C/O[C@@]2(C)Oc3c(C)c(O)c4c(O)c(c(/C=N\N5CCN(C6CCCC6)CC5)c(O)c4c3C2=O)NC(=O)/C(C)=C\C=C\[C@H](C)[C@H](O)[C@@H](C)[C@@H](O)[C@@H](C)[C@H](OC(C)=O)[C@@H]1C	78.4	70.3	63.7	62.1	45.6	15	6.95	3.02	1.55	1.63	1.24	39.3	42.6	34.7	33.5	29.1	9.34	4.87	2.56	1.35	1.05	0.91	58	63.5	60.5	47.5	50.4	19.8	8.21	2.82	1.68	1.26	1.06
Cc1ccc(NC(=O)Nc2cc(C(F)(F)F)ccc2F)cc1Nc1ccc2c(c1)NC(=O)/C2=C\c1ccc[nH]1	108	131	121	115	118	127	131	120	111	87.6	16.2												120	116	122	111	138	139	124	124	102	76.2	4.96
COc1ccc2c(OCc3nnc4ccc(-c5ccccc5)nn34)ccnc2c1	106	101	101	107	120	92.9	107	102	97.4	75.9	15.6	68.7	63.1	71.5	82.1	84	78.6	105	78.2	60.8	25.6	1.49	94	96.8	90.5	111	115	102	95.3	91.1	81	63.1	3.65
O=C(O)CCNc1cc(N2CCc3ccccc3CC2)nc(-c2ccccn2)n1	123	120	130	127	139	144	129	133	121	129	139	105	124	123	118	121	103	103	95.9	99.2	115	76.9	112	116	127	110	116	120	130	112	101	120	99.6
C=CCc1cc(OC)c(O)c(C(=O)NCCO)c1	110	101	101	103	116	98.7	112	92	98.6	69.3	64.3	97.4	108	108	110	102	112	98.1	88	99.2	77.1	68.6	110	83.8	99.1	102	105	113	105	103	96.6	78.4	66.8
